# Assays:
# PDC-3 β-lactamase [1] = target: T1, PDC-3 β-lactamase (Pseudomonas aeruginosa, UniProt P24735, T105A); assay: Thermal denaturation by circular dichroism; type: binding; settings: 10 μM PDC-3 with 200 μM inhibitor; CD, 20 to 80°C
# T1 construct: produces the corresponding PDC-3 protein without its signal peptide; made in house; host or cells: E. coli Origami 2 DE3, pET24a (+) blaPDC-3
# Method: (§1) Circular dichroism (CD) experiments were carried out in a Jasco (Easton, MD) J-815 spectrometer with a Peltier effect temperature controller. Quartz cells with a 0.1-cm path length were used for all experiments.
# (§2) PDC-3 enzyme and the E221K variant (10 μM) with or without S02030 or LP-06 (200 μM) were monitored for thermal denaturation by CD at λ215 and λ221 between 20 and 80°C with a heating rate of 2°C/min. Two-state behavior was indicated by identical curves at each wavelength. Raw equilibrium denaturation data were normalized to the fraction of denatured protein (fU). With the assumption of a reversible two-state transition (N ↔ U), equilibrium constants (Keq) at any given temperature were calculated, as previously described ([32]), using equation 4 (4) Keq=fU/(1−fU)
# (§3) The melting temperature Tm was determined at the midpoint of equilibrium folding (T = Tm) when ΔG = 0. (5) ln Keq=1/T (−ΔH/R)+ΔS/R
# (§4) The free energy of unfolding was determined as previously described using the equation ΔΔGu = ΔTmΔSu^PDC-3 (Schellman), where ΔSu^PDC-3 = 0.326 ± 0.02 Kcal mol^−1 K^−1.
# [2] = target: T2, E221K variant of PDC-3 β-lactamase (Pseudomonas aeruginosa, UniProt P24735, E247K/T105A); assay: Thermal denaturation by circular dichroism; type: binding; settings: 10 μM E221K with 200 μM inhibitor; CD, 20 to 80°C
# T2 construct: produces the corresponding PDC-3 protein without its signal peptide; made in house; host or cells: E. coli Origami 2 DE3, pET24a (+) blaPDC-3-E221K
# Method: as §1, §2, §3, §4
# PDC-3 β-lactamase [3] = target: T1, PDC-3 β-lactamase; assay: BATSI inhibition kinetics (IC50), nitrocefin reporter; type: biochemical; settings: PDC-3 (1.5 nM); 5-min preincubation; 100 μM nitrocefin reporter substrate
# Method: (§5) Because of the time-dependent inhibition observed previously with some of the chiral boronates ([43]), the BATSIs were preincubated with enzyme for 5 min in phosphate-buffered saline before initiation of the reaction with the addition of substrate. The initial velocity (0 to 10 s) was measured in the presence of a constant concentration of enzyme (1.5 nM PDC-3 and 20 nM E221K) and increasing concentrations of the inhibitors against the fixed concentration (100 μM) of the indicator substrate, nitrocefin. The IC50 is the concentration of inhibitor that reduces the velocity by 50%. IC50 values were determined by fitting the initial velocity (v0) measurements to equation 2.(2) v0= Vmax[S]/Km[1+ I/IC50]+[S]
# [4] = target: T2, E221K variant of PDC-3 β-lactamase; assay: as above; type: biochemical; settings: E221K (20 nM); 5-min preincubation; 100 μM nitrocefin reporter substrate
# Method: as §5
# [5] = system: E. coli DH10B pBC SK blaPDC-3 E221K; assay: MIC, MH agar dilution (CLSI); type: cell-based, Escherichia coli; settings: strain expressing E221K, highest MICs among variant strains
# Method: Variant genes were synthesized into the pBC SK (-) vector by Celtek Bioscience (Franklin, TN). Mueller-Hinton (MH) agar-dilution MIC measurements were performed against isogenic transformants producing PDC-3 and nine variants of PDC-3 in pBC SK (-) according to the Clinical and Laboratory Standards Institute (CLSI) guidelines as previously described ([39], [48]). Avibactam, LP-06, and S02030 were tested at a constant 4 µg/ml in combination with various concentrations of ceftazidime. Piperacillin-tazobactam was maintained at a ratio of 8 piperacillin to 1 tazobactam. Ceftolozane-tazobactam was maintained at a ratio of 2 ceftolozane to 1 tazobactam. The MICs are reported as the concentrations at which bacterial growth was no longer observed. All MIC measurements were performed at least three times.
# T1 sequence (P24735 27-397 T105A): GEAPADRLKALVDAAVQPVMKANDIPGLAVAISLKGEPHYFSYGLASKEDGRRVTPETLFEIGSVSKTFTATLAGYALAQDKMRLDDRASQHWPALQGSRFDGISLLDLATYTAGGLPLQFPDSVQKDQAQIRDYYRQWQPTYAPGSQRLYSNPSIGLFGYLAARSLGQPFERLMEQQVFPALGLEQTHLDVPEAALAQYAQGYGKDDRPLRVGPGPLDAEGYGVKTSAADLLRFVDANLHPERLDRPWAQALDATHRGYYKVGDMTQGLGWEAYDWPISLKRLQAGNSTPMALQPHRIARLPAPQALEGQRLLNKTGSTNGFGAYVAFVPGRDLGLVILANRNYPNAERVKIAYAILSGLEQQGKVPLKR
# T2 sequence (P24735 27-397 T105A/E247K): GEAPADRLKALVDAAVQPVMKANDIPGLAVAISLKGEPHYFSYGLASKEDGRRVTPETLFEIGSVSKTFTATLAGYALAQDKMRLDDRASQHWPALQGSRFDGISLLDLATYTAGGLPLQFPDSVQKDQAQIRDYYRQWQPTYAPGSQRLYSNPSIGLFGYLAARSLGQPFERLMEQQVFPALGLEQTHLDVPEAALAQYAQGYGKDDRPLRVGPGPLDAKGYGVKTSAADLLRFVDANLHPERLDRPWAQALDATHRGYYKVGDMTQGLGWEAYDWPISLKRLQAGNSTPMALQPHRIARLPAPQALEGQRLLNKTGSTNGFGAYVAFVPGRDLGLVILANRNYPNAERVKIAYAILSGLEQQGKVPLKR
smiles,measurement,setting,value
O=C(Cc1cccs1)N[C@@H](Cn1cc(C(=O)O)nn1)B(O)O [S02030],increase in thermal stability (Tm) on inhibitor binding,PDC-3 β-lactamase [1],6 °C
same,increase in thermal stability (Tm) on inhibitor binding,[2],3 to 4 °C
same,IC50,PDC-3 β-lactamase [3],0.062 ± 0.002 µM
same,IC50,[4],0.769 ± 0.03 µM
same,MICs of ceftolozane and ceftazidime combined with BATSI,[5],8 to 16 mg/L
